This is an account of results in US20250177357A1, “METHODS FOR TREATING HYPERTROPHIC CARDIOMYOPATHY” (priority 2021, published 2025).

The data set deals with healthy adults. Briefly: Phase 1 first-in-human study: safety and tolerability (adverse events), SAD and MAD cohorts. The conditions noted are these: in vivo. From the text:
Study Overview and Ethics. The study used a randomized, placebo-controlled, single-ascending dose (SAD) and multiple-ascending dose (MAD) design (FIG. 2). […] Dose escalation was to be stopped when this range was achieved, or when a non-tolerated dose was identified, if earlier.
Participants and Treatments. To be eligible for this study, participants were to be healthy adults aged 18 to 55 years, with body mass index of 18.0 to 32.0 kg/m^2, normal electrocardiogram (ECG) and clinical laboratory values, or only minor abnormalities that were deemed not clinically significant. Participants also had to have normal cardiac structure and function, with LVEF≥60% for the first 4 SAD cohorts, ≥65% for subsequent SAD cohorts, all MAD cohorts, and the food-effect cohort, and >55% for the CYP2D6-PM cohort. […]
Safety and tolerability. Safety was assessed by the incidence of adverse events (AEs) and by incidence of reduced LVEF. […]
For safety monitoring, participants in all cohorts had periodic echocardiograms, which were assessed by a cardiologist. […] In addition, participants in all cohorts were monitored with continuous 12-lead ECG recording using Holter monitors. […] In the SAD, MAD, and CYP2D6-PM cohorts, cardiodynamic ECGs (triplicate 10-second, 12-lead ECG recordings) were obtained prior to the corresponding PK blood and ECG intervals quantitated by qualified readers.

For `CCc1nc(-c2ccc3c(c2)CC[C@H]3NC(=O)c2cnn(C)c2)no1` [aficamten, (R)—N-(5-(5-ethyl-1,2,4-oxadiazol-3-yl)-2,3-dihydro-1H-inden-1-yl)-1-methyl-1H-pyrazole-4-carboxamide], the “Post-dose LVEF of 1 participant with LVEF <50%” value is 46.2%. In addition, the “Time to resolution of AEs of decreased ejection fraction <45%” value (human) is 2.5 to 4.6 h.
